Results on one sequence are retold here after article PMC9296036, “A peptide interfering with the dimerization of oncogenic KITENIN protein and its stability suppresses colorectal tumour progression” (Clinical and Translational Medicine, 2022).

The test system of the assay is Caco2/KITENIN cells. Briefly: Transwell cell invasion assay, Caco2/KITENIN cells. It is filed as cell-based. As to conditions: Caco2 cells transfected with KITENIN-V5, KDIP versus scrambled peptide. The method, then:
Cell invasion was measured using the transwell migration apparatus as described.[18] Briefly, cultured cells were seeded into the top of a 24‐well invasion chamber assay plate (Costar). Conditioned DMEM medium containing 10 μg/ml of fibronectin (Calbiochem) and 1% FBS was added to the bottom chamber as a chemoattractant. After 16 h (Caco2) or 48 h (HCT116) of incubation, the cells were stained. Cells at the top surface of the filters were wiped off with a cotton ball, and migrated cells on the bottom surface were counted in four random squares of .5 mm × .5 mm on each filter. The results are shown as the mean ± SEM of the number of cells per field for at least three independent experiments.
Effect of KAI1 C‐terminal interacting tetraspanin (KITENIN) dimerization‐interfering peptide (KDIP) on tumour growth and metastasis in in vivo mouse model of colorectal cancer (CRC). […] For the evaluation of metastasis, total fluorescence emitted from liver nodules expressing iRFP was measured and counted (left panel) or metastatic tumour growth was counted as nodules that migrated to the surface of the liver, and a metastatic score was obtained by multiplying it with size (middle panel). Metastatic score or total fluorescence is represented as mean ± SEM. […] The quantitative amount of each protein was measured by densitometry and is represented as an arbitrary score (mean ± SEM, n = 6). […]

Ends that are not written are not given here.

For the sequence YARVRRRGPRRWRLVSDEAV [KDIP], the “cellular invasion by overexpressed KITENIN (in words)” value was “reduced”.
